The source of these data is patent publication US20170253607A1, “LONG-ACTING HIV PROTEASE INHIBITOR” (Shionogi & Co., Ltd., priority 2014, published 2017).

pIC50: −log10 of the molar value.

The experiment concerns the target HIV-1 PR (Human immunodeficiency virus type 1 group M subtype B, UniProt P04585). As to the kind of experiment: HIV-protease inhibitory activity assay (FRET peptide substrate). The format is biochemical. As to conditions: Test Example 1. Put shortly:
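HIV-1 PR (0.83 ng) preincubated with compounds 20 min at room temperature in 0.1 mol/L NaAc, 0.5 mol/L NaCl, 1 mmol/L EDTA, 1 mmol/L DTT, 0.05% Tween 20, pH 4.8. Cleavage of HiLyte Fluor 488/QXL 520 FRET peptide (2 μmol/L) read after 60 minutes at 485/535 nm; IC50 from four-parameter logistic fit.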
In the case of `COc1ccc(S(=O)(=O)N(CC(C)C)CC(O)C(Cc2ccc(N(Cc3ccccc3-c3sc4c(c3C(=O)O)CC(C)(C)CC4)CC(C)C)cc2)NC(=O)OC2COC3(C)OCCC23)cc1` (stereo not drawn) [Compound I-422], the pIC50 was 8.07.
In turn, `COc1ccc(S(=O)(=O)N(CC(C)C)CC(O)C(Cc2ccc(NCC3CC(C)(C)CCC3c3sc4c(c3C(=O)O)CC(C)(C)CC4)cc2)NC(=O)OC2COC3OCCC23)cc1` (stereo not drawn) [Compound I-887] had a negative logarithm of the IC50 (pIC50) of 8.55.
Regarding `COc1ccc(S(=O)(=O)N(CC(C)C)CC(O)C(Cc2ccc(Nc3cccc(-c4sc5c(c4C(=O)O)CC(C)(C)CC5)c3)cc2)NC(=O)OC2COC3(C)OCCC23)cc1` (stereo not drawn) [Compound I-478], the negative-log IC50 (pIC50) is 8.65.
Take `COc1ccc(S(=O)(=O)N(CC(C)C)CC(O)C(Cc2ccc(OCc3ccccc3-c3sc4c(c3C(=O)O)CC(F)(F)CC4)cc2)NC(=O)OC2COC3(C)OCCC23)cc1` (stereo not drawn) [Compound I-54]: the negative-log IC50 (pIC50) was 8.91.
The molecule `COc1ccc(S(=O)(=O)N(CC(C)C)CC(O)C(Cc2ccc(NCc3ncn4cc(-c5sc6c(c5C(=O)O)CC(C)(C)CC6)ccc34)cc2)NC(=O)OC2COC3(C)OCCC23)cc1` (stereo not drawn) [Compound I-323] had a negative-log IC50 (pIC50) of 8.62.
As for `COc1ccc(S(=O)(=O)N(CC(C)C)CC(O)C(Cc2ccc(N3CCC(C(=O)N(C)c4sc5c(c4C(=O)O)CC(C)(C)CC5)C3)cc2)NC(=O)OC2COC3OCCC23)cc1` (stereo not drawn) [Compound I-863], the negative-log IC50 (pIC50) was 8.59.
Regarding `COc1ccc(S(=O)(=O)N(CC(C)C)CC(O)C(Cc2ccc(NCc3ccccc3NC(=O)Nc3sc4c(c3C(=O)O)CC(C)(C)CC4)cc2)NC(=O)OC2COC3(C)OCCC23)cc1` (stereo not drawn) [Compound I-779], the negative logarithm of the IC50 (pIC50) is 8.56.
As to `CCN(C(=O)Nc1ccccc1-c1sc2c(c1C(=O)O)CC(C)(C)CC2)c1ccc(CC(NC(=O)OC2COC3(C)OCCC23)C(O)CN(CC(C)C)S(=O)(=O)c2ccc(OC)cc2)cc1` (stereo not drawn) [Compound I-377], the pIC50 is 8.27.
As for `COc1ccc(S(=O)(=O)N(CC(C)C)CC(O)C(Cc2ccc(COc3ccc(-c4ccc(F)cc4F)cc3C(=O)O)cc2)NC(=O)OC2COC3(C)OCCC23)cc1` (stereo not drawn) [Compound I-63], the pIC50 is 9.05. This pIC50 is 0.78 log units higher than that of the molecule before.
Molecule `COc1ccc(S(=O)(=O)N(CC(C)C)CC(O)C(Cc2ccc(N(C)Cc3nc(N4CCOCC4)sc3-c3sc4c(c3C(=O)O)CC(C)(C)CC4)cc2)NC(=O)OC2COC3(C)OCCC23)cc1` (stereo not drawn) [Compound I-757] gave a negative-log IC50 (pIC50) of 8.52. This pIC50 is 0.53 log units lower than that of the molecule before.
For `COc1ccc(S(=O)(=O)N(CC(C)C)CC(O)C(Cc2ccc(NCc3cc(C)ccc3NC(=O)c3sc4c(c3C(=O)O)CC(C)(C)CC4)cc2)NC(=O)OC2COC3(C)OCCC23)cc1` (stereo not drawn) [Compound I-610] the value was 8.67.
Regarding `COc1ccc(S(=O)(=O)N(CC(C)C)CC(O)C(Cc2ccc(NCc3ccccc3C(=O)Nc3sc4c(c3C(=O)O)CC(C)(C)CC4)cc2)NC(=O)OC2COC3(C)OCCC23)cc1` (stereo not drawn) [Compound I-397], the negative logarithm of the IC50 (pIC50) was 8.58. This pIC50 and that of the molecule before are within 0.2 log units of each other.
As for `COc1ccc(S(=O)(=O)N(CC(C)C)CC(O)C(Cc2ccc(N(Cc3cccnc3)Cc3ccccc3-c3sc4c(c3C(=O)O)CC(C)(C)CC4)cc2)NC(=O)OC2COC3(C)OCCC23)cc1` (stereo not drawn) [Compound I-423], the negative-log IC50 (pIC50) was 8.55.
As to `COc1ccc(S(=O)(=O)N(CC(C)C)CC(O)C(Cc2ccc(OCc3cccnc3-c3sc4c(c3C(=O)O)CC(C)(C)CC4)cc2)NC(=O)OC2COC3(C)OCCC23)cc1` (stereo not drawn) [Compound I-90], the negative logarithm of the IC50 (pIC50) is 8.88.
For `COc1ccc(S(=O)(=O)N(CC(C)C)CC(O)C(Cc2ccc(N(C)Cc3cc(C(F)(F)F)ccc3-n3nc(C(=O)O)c4c3CCC(C)(C)C4)cc2)NC(=O)OC2COC3(C)OCCC23)cc1` (stereo not drawn) [Compound I-447] the value was 8.63; for `COc1ccc(S(=O)(=O)N(CC(C)C)CC(O)C(Cc2ccc(N(C)Cc3ncccc3C(=O)Nc3sc4c(c3C(=O)O)CC(C)(C)CC4)cc2)NC(=O)OC2COC3(C)OCCC23)cc1` (stereo not drawn) [Compound I-694], 8.64; for `COc1ccc(S(=O)(=O)N(CC(C)C)CC(O)C(Cc2ccc(NCc3cc(C)c(-c4sc5c(c4C(=O)O)CC(C)(C)CC5)c(C)c3)cc2)NC(=O)OC2COC3(C)OCCC23)cc1` (stereo not drawn) [Compound I-533], 7.97.
For `COc1ccc(S(=O)(=O)N(CC(C)C)CC(O)C(Cc2ccc(CN(C)C3CCCCC3c3sc4c(c3C(=O)O)CC(C)(C)CC4)cc2)NC(=O)OC2COC3(C)OCCC23)cc1` (stereo not drawn) [Compound I-341] the value was 8.72.
For `COc1ccc(S(=O)(=O)N(CC(C)C)CC(O)C(Cc2ccc(NCc3ccccc3-n3nc4c(c3C(=O)O)CC3(CCCC3)CC4)cc2)NC(=O)OC2COC3(C)OCCC23)cc1` (stereo not drawn) [Compound I-38] the value was 8.41.
For the molecule `COc1ccc(S(=O)(=O)N(CC(C)C)CC(O)C(Cc2ccc(Oc3ccc(C(=O)O)c(-c4ccc(F)cc4F)c3)cc2)NC(=O)OC2COC3(C)OCCC23)cc1` (stereo not drawn) [Compound I-155], the pIC50 was 8.86.
Molecule `COc1ccc(S(=O)(=O)N(CC(C)C)CC(O)C(Cc2ccc(N(C)c3cccc(-c4sc5c(c4C(=O)O)CC(C)(C)CC5)c3)cc2)NC(=O)OC2COC3(C)OCCC23)cc1` (stereo not drawn) [Compound I-479] had a pIC50 of 8.60.
With `COc1ccc(S(=O)(=O)N(CC(C)C)CC(O)C(Cc2ccc(N(C)CC3=C(c4sc5c(c4C(=O)O)CC(C)(C)CC5)CCC(F)(F)C3)cc2)NC(=O)OC2COC3(C)OCCC23)cc1` (stereo not drawn) [Compound I-706], the pIC50 was 8.18.
With `COc1ccc(S(=O)(=O)N(CC(C)C)CC(O)C(Cc2ccc(NCc3cc(-c4ccc5c(c4)[nH]c4ccccc45)ccc3-c3sc4c(c3C(=O)O)CC(C)(C)CC4)cc2)NC(=O)OC2COC3(C)OCCC23)cc1` (stereo not drawn) [Compound I-724], the pIC50 is 8.74.
Take `COc1ccc(S(=O)(=O)N(CC(C)C)CC(O)C(Cc2ccc(OCC3CCN(c4ccccc4-c4sc5c(c4C(=O)O)CC(C)(C)CC5)C3)cc2)NC(=O)OC2COC3(C)OCCC23)cc1` (stereo not drawn) [Compound I-204]: the pIC50 is 8.69.
In turn, `COc1ccc(S(=O)(=O)N(CC(C)C)CC(O)C(Cc2ccc(N3CCC(Cc4ccccc4-c4sc5c(c4C(=O)O)CC(C)(C)CC5)C3)cc2)NC(=O)OC2COC3(C)OCCC23)cc1` (stereo not drawn) [Compound I-668] showed a pIC50 of 8.15. This pIC50 lies 0.54 log units lower than the previous one.
`COc1ccc(S(=O)(=O)N(CC(C)C)CC(O)C(Cc2ccc(N(C)Cc3ccc(N4CCCCC4=O)cc3-c3sc4c(c3C(=O)O)CC(C)(C)CC4)cc2)NC(=O)OC2COC3(C)OCCC23)cc1` (stereo not drawn) [Compound I-743] showed a pIC50 of 8.63.
In turn, `COc1ccc(S(=O)(=O)N(CC2CCC2)CC(O)C(Cc2ccc(NCc3ccccc3C(=O)Nc3sc4c(c3C(=O)O)CC(C)(C)CC4)cc2)NC(=O)OC2COC3(C)OCCC23O)cc1` (stereo not drawn) [Compound I-893] gave a pIC50 of 8.23.
In turn, `COc1ccc(S(=O)(=O)N(CC(C)C)CC(O)C(Cc2ccc(-c3cc(C(=O)O)cs3)cc2)NC(=O)OC2COC3(C)OCCC23)cc1` (stereo not drawn) [Compound I-109] had a pIC50 of 8.92.
The molecule `COc1ccc(S(=O)(=O)N(CC(C)C)CC(O)C(Cc2ccc(NCc3cncc(C(=O)Nc4sc5c(c4C(=O)O)CC(C)(C)CC5)c3)cc2)NC(=O)OC2COC3(C)OCCC23)cc1` (stereo not drawn) [Compound I-443] showed a negative-log IC50 (pIC50) of 8.73.
Turning to `CC(C)CN(CC(O)C(Cc1ccc(OCc2ccc(-c3ccccc3)cc2C(=O)N(C)C)cc1)NC(=O)OC1COC2(C)OCCC12)S(=O)(=O)c1ccc2ncsc2c1` (stereo not drawn) [Compound I-161], the negative-log IC50 (pIC50) was 9.03.
Regarding `CC(C)CN(CC(O)C(Cc1ccc(OCc2cc(C(=O)O)ccc2-c2ccc(F)cc2F)cc1)NC(=O)OC1COC2(C)OCCC12)S(=O)(=O)c1ccc2ncsc2c1` (stereo not drawn) [Compound I-151], the pIC50 is 8.73.
Take `COc1ccc(S(=O)(=O)N(CC(C)C)CC(O)C(Cc2ccc(NCc3ccc(C(=O)Nc4sc5c(c4C(=O)O)CC(C)(C)CC5)s3)cc2)NC(=O)OC2COC3(C)OCCC23)cc1` (stereo not drawn) [Compound I-441]: the negative logarithm of the IC50 (pIC50) was 8.58. The pIC50 values of the last two molecules are within 0.2 log units of each other.
For `COc1ccc(S(=O)(=O)N(CC(C)C)CC(O)C(Cc2ccc(Oc3ccc(-c4sc5c(c4C(=O)O)CC(C)(C)CC5)cc3)cc2)NC(=O)OC2COC3(C)OCCC23)cc1` (stereo not drawn) [Compound I-133], the pIC50 was 8.82.
`COc1ccc(S(=O)(=O)N(CC(C)C)CC(O)C(Cc2ccc(N(C)Cc3cnc4sccc4c3-c3sc4c(c3C(=O)O)CC(C)(C)CC4)cc2)NC(=O)OC2COC3(C)OCCC23)cc1` (stereo not drawn) [Compound I-702] had a negative-log IC50 (pIC50) of 8.67. This pIC50 and that of the molecule before are within 0.2 log units of each other.
With `COc1ccc(S(=O)(=O)N(CC(C)C)CC(O)C(Cc2ccc(NCC3=C(c4sc5c(c4C(=O)O)CC(C)(C)CC5)CCN(C)C3)cc2)NC(=O)OC2COC3(C)OCCC23)cc1` (stereo not drawn) [Compound I-403], the negative logarithm of the IC50 (pIC50) is 8.64.
For `COc1ccc(S(=O)(=O)N(CC(C)C)CC(O)C(Cc2ccc(OCC3CCN(c4cccc(-c5sc6c(c5C(=O)O)CC(C)(C)CC6)c4)C3)cc2)NC(=O)OC2COC3(C)OCCC23)cc1` (stereo not drawn) [Compound I-896] the value was 7.78.
Next, `COc1ccc(S(=O)(=O)N(CC(C)C)CC(O)C(Cc2ccc(NCc3cccc(-c4sc5c(c4C(=O)O)CC(C)(C)CC5)n3)cc2)NC(=O)OC2COC3(C)OCCC23)cc1` (stereo not drawn) [Compound I-283]: 8.64; `CCCCCCN(Cc1ccccc1-c1sc2c(c1C(=O)O)CC(C)(C)CC2)c1ccc(CC(NC(=O)OC2COC3(C)OCCC23)C(O)CN(CC(C)C)S(=O)(=O)c2ccc(OC)cc2)cc1` (stereo not drawn) [Compound I-428]: 7.80.
The molecule `COc1ccc(S(=O)(=O)N(CC(C)C)C[C@@H](O)[C@H](Cc2ccc(OCc3ccccc3-c3sc4c(c3C(=O)O)CC(C)(C)CC4)cc2)NC(=O)O[C@H]2CCC[C@H]3O[C@@H]4OCC[C@@H]4[C@@H]23)cc1` [Compound I-909] had a negative-log IC50 (pIC50) of 8.49. This pIC50 lies 0.69 log units higher than the previous one.
Regarding `CC(C)CN(CC(O)C(Cc1ccc(NCc2ccccc2C(=O)Nc2sc3c(c2C(=O)O)CC(C)(C)CC3)cc1)NC(=O)OC1COC2(C)OCCC12)S(=O)(=O)c1ccc2c(c1)OCO2` (stereo not drawn) [Compound I-591], the negative-log IC50 (pIC50) was 8.50.
`COc1ccc(S(=O)(=O)N(CC(C)C)CC(O)C(Cc2ccc(NCc3cnc(OC)cc3-c3sc4c(c3C(=O)O)CC(C)(C)CC4)cc2)NC(=O)OC2COC3(C)OCCC23)cc1` (stereo not drawn) [Compound I-278]: the pIC50 is 8.74. This pIC50 is 0.24 log units higher than that of the molecule before.
Molecule `COc1ccc(S(=O)(=O)N(CC(C)C)CC(O)C(Cc2ccc(N(C)Cc3cc(OC(F)(F)F)ccc3-c3sc4c(c3C(=O)O)CC(C)(C)CC4)cc2)NC(=O)OC2COC3(C)OCCC23)cc1` (stereo not drawn) [Compound I-699] gave a negative logarithm of the IC50 (pIC50) of 7.99.
